Legend:
PDGFR = biological target: T1, PDGFR (UniProt P09619); test: PDGFR bioassay (ELISA, in vitro kinase activity); assay type: biochemical; conditions: PDGFR-β expressing NIH 3T3 cell lysate, 20 μM ATP
T1 construct: PDGFR-β expressing NIH 3T3 cell lysate (SUGEN, Inc.)
Description: This assay is used to the in vitro kinase activity of PDGFR in an ELISA assay.
1. Corning 96-well ELISA plates
2. 28D4C10 monoclonal anti-PDGFR antibody (SUGEN, Inc.).
5. Blocking Buffer (same as for EGFR bioassay).
6. PDGFR-β expressing NIH 3T3 cell lysate (SUGEN, Inc.).
11. Kinase buffer phosphorylation mix: for 10 ml, mix 250 μl 1M TRIS, 200 μl 5M NaCl, 100 μl 1M MnCl2 and 501l 100 mM Triton X-100 in enough dH2O to make 10 ml.
12. NUNC 96-well V bottom polypropylene plates.
14. Rabbit polyclonal anti-phosphotyrosine serum (SUGEN, Inc.).
15. Goat anti-rabbit IgG peroxidase conjugate (Biosource Cat. No. ALI0404).
17. Hydrogen peroxide, 30% solution.
1. Coat Corning 96 well ELISA plates with […] 28D4C 10 in 100 μl PBS per well, hold overnight at 4° C.
2. Remove unbound 28D4C10 from wells by inverting plate to remove liquid. Wash 1× with dH2O. Pat the plate on a paper towel to remove excess liquid.
3. Add 150 μl of Blocking Buffer to each well. Incubate for 30 min. at room temperature with shaking.
4. Wash plate 3× with deionized water, then once with TBST. Pat plate on a paper towel to remove excess liquid and bubbles.
5. Dilute lysate in HNTG (10 μg lysate/100 μl HNTG).
6. Add 100 μl of diluted lysate to each well. Shake at room temperature for 60 min.
7. Wash plates as described in Step 4.
8. Add 80 μl working kinase buffer mix to ELISA plate containing captured PDGFR.
9. Dilute test compound 1:10 in TBS in 96-well polypropylene plates.
10. Add 10 μl diluted test compound to -ELISA plate. To control wells, add 10 μl TBS+10% DMSO. Incubate with shaking for 30 minutes at room temperature.
11. Add 10 μl ATP directly to all wells except negative control well (final well volume should be approximately 100 μl with 20 μM ATP in each well.) Incubate 30 minutes with shaking.
12. Stop reaction by adding 10 μl of EDTA solution to each well.
13. Wash 4× with deionized water, twice with TBST.
14. Add 100 μl anti-phosphotyrosine (1:3000 dilution in TBST) per well.
Incubate with shaking for 30-45 min. at room temperature.
16. Add 100 μl Biosource Goat anti-rabbit IgG peroxidase conjugate (1:2000 dilution in TBST) to each well. Incubate with shaking for 30 min. at room temperature.
18. Add 100 μl of ABTS/H2O2 solution to each well.
19. Incubate 10 to 30 minutes with shaking. Remove any bubbles.
20. If necessary stop reaction with the addition of 100 μl 0.2 M HCl per well.
21. Read assay on Dynatech MR7000 ELISA reader with test filter at 410 nM and reference filter at 630 nM.

SRC = biological target: T2, SRC (Homo sapiens, UniProt P12931); test: Src transphosphorylation assay; assay type: biochemical; conditions: recombinant human Src, poly(Glu-Tyr) substrate
T2 construct: purchased UBI 14-117
T2 sequence (P12931 whole entry): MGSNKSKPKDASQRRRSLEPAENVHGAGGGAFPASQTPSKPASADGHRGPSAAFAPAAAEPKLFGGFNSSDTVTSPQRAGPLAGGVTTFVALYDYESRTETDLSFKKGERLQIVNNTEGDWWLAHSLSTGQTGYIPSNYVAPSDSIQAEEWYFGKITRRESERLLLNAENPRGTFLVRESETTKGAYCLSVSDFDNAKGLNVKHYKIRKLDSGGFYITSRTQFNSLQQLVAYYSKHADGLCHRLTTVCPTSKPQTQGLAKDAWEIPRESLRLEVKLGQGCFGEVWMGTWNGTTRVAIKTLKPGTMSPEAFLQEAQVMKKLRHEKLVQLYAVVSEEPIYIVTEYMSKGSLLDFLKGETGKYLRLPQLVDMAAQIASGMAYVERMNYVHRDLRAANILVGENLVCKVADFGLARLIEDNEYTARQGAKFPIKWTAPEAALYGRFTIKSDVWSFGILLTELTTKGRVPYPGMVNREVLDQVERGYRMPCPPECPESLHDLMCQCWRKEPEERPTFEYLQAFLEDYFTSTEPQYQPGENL
Description: Src Transphosphorylation Assay
This assay is used to screen for inhibitors of the tyrosine kinase Src.
1. Coating buffer: PBS containing sodium azide (0.2 mg/ml).
3. Wash buffer: PBS containing 0.05% v/v Tween 20 (PBS-TWEEN)
5. ATP (40 [M)+MgCl2 (80 mM) in distilled water.
6. MgCl2 (80 mM) in distilled water (for no ATP blanks).
7. Test compounds, 10 mM in DMSO.
8. Assay Buffer: 100 mM HEPES, pH 7.4, containing 2 mM DTT, 0.2 mM sodium orthovanadate and 0.2 mgs/ml BSA.
9. Partially purified recombinant human Src (UBI (14-117)
10. Anti-phosphotyrosine (SUGEN rabbit polyclonal anti-PY).
11. HRP-linked goat anti-rabbit Ig (Biosource International #6430)
12. HRP substrate ABTS or Pierce Peroxidase substrate.
13. Corning ELISA plates.
1. Coat plates with 100 μl of 20 μg/ml poly(Glu-Tyr) (Sigma Cat. No.P0275) containing 0.01% sodium azide. Hold overnight at 4° C.
2. Block with 1% BSA at 100 μl/well for one hour at room temperature.
3. Plate test compounds (10 mM in DMSO) at 2 ul/well on a Costar plate ready for dilution with dH2O and plating to reaction plates.
4. Dilute Src kinase 1:10,000 in Reaction Buffer, for 5 plates prepare 25 ml as follows: 2.5 mls 1M HEPES pH7.4 (stored sterile at 4° C.), 21.85 ml distilled water, 0.1 ml 5% BSA, 0.5 ml 10 mM sodium orthovanadate (stored sterile at 4° C.), 50 μl 1.0M DTT (stored frozen at […]), and 2.5 μl Src Kinase (stored frozen at −80° C.).
5. Add 48 μl of distilled water to the 2 ∥l of each compound in the dilution plate then add 25 μl/well of this to the reaction plate.
6. Add 50 μl of […] to each reaction buffer well and then 25 μl ATP-MgCl2/well (MgCl2 only to no ATP blanks). Incubate at room temperature for 15 minutes on plate shaker. Stop reaction by adding 25 μl of 0.5M EDTA to each well.
7. Wash 4× with PBS-TWEEN.
8. […] Incubate with continuous shaking at room temperature for one hour.
9. Wash plates 4× with PBS-TWEEN.
10. Add 100 μl HPP-linked Ig (1:5,000) in PBS-TWEEN containing 0.5% BSA, 0.025% Non-fat milk powder, 100 μM sodium orthovanadate. Incubate with shaking at room temperature for one hour.
11. Wash plates 4× with PBS-TWEEN and then once with PBS.
12. Develop plate using ABTS or other peroxidase substrate.

IC50 (PDGFR) | IC50 (SRC) | Compound
3.84 µM | 5.42 µM | COc1ccc(-c2cccc3c2/C(=C/c2[nH]c(C)cc2C(=O)NCCN2CCCC2)C(=O)N3)cc1 [Example 41, 2-[4-(4-Methoxy-phenyl)-2-oxo-1,2-dihydro-indol-3-ylidenemethyl]-5-methyl-1H-pyrrole-3-carboxylic Acid (2-Pyrrolidin-1-yl-ethyl)-amide]
4.19 µM | 0.66 µM | CCN(CC)CCNC(=O)c1c(C)[nH]c(/C=C2\C(=O)Nc3cccc(-c4cccc(OC)c4)c32)c1C [Example 46, 5-[4-(3-Methoxy-phenyl)-2-oxo-1,2-dihydro-indol-3-ylidenemethyl]-2,4-dimethyl-1H-pyrrole-3-carboxylic Acid (2-Diethylamino-ethyl)-amide]
8.39 µM | 3.8 µM | COc1cccc(-c2cccc3c2/C(=C/c2[nH]c(C)c(C(=O)NCCn4ccnn4)c2C)C(=O)N3)c1 [Example 48, 5-[4-(3-Methoxy-phenyl)-2-oxo-1,2-dihydro-indol-3-ylidenemethyl]-2,4-dimethyl-1H-pyrrole-3-carboxylic Acid (2-[1,2,3]Triazol-1-yl-ethyl)-amide]
1.54 µM | 0.54 µM | COc1cccc(-c2cccc3c2/C(=C/c2[nH]c(C)c(C(=O)NCCN(C(C)C)C(C)C)c2C)C(=O)N3)c1 [Example 52, 5-[4-(3-Methoxy-phenyl)-2-oxo-1,2-dihydro-indol-3-ylidenemethyl]-2,4-dimethyl-1H-pyrrole-3-carboxylic Acid (2-Diisopropylamino-ethyl)-amide]
> 20 µM | 13.5 µM | Cc1[nH]c(/C=C2\C(=O)Nc3cccc(-c4ccc(Br)cc4)c32)c(C)c1C(=O)N1CCN(C)CC1 [Example 53]
> 20 µM | 4.74 µM | Cc1[nH]c(/C=C2\C(=O)Nc3cccc(-c4ccc(Br)cc4)c32)c(C)c1C(=O)N1C[C@@H](C)N[C@@H](C)C1 [Example 57, 4-(4-Bromo-phenyl)-3-[4-[(cis)-3,5-dimethyl-piperazine-1-carbonyl)-3,5-dimethyl-1H-pyrrol-2-ylmethylene]-1,3-dihydro-indol-2-one]
16.1 µM | 4.81 µM | Cc1cc(C(=O)NCCN2CCCC2)c(/C=C2\C(=O)Nc3cccc(-c4ccc(Br)cc4)c32)[nH]1 [Example 58, 2-[4-(4-Bromo-phenyl)-2-oxo-1,2-dihydro-indol-3-ylidenemethyl]-5-methyl-1H-pyrrole-3-carboxylic Acid (2-Pyrrolidin-1-yl-ethyl)-amide]
2.37 µM | 2.01 µM | Cc1[nH]c(/C=C2\C(=O)Nc3cccc(-c4ccc(Br)cc4)c32)c(C)c1C(=O)NCCN(C(C)C)C(C)C [Example 60, 5-[4-(4-Bromo-phenyl)-2-oxo-1,2-dihydro-indol-3-ylidenemethyl]-2,4-dimethyl-1H-pyrrole-3-carboxylic Acid (2-Diisopropylamino-ethyl)-amide]
9.12 µM | 1.72 µM | CCN(CC)CCNC(=O)c1c[nH]c(/C=C2\C(=O)Nc3cccc(-c4ccc(Br)cc4)c32)c1C [Example 61, 5-[4-(4-Bromo-phenyl)-2-oxo-1,2-dihydro-indol-3-ylidenemethyl]-4-methyl-1H-pyrrole-3-carboxylic Acid (2-Diethylamino-ethyl)-amide]
2.18 µM | 1.14 µM | CCN(CC)CCNC(=O)c1c(C)[nH]c(/C=C2\C(=O)Nc3cccc(-c4cccc(Br)c4)c32)c1C [Example 63, 5-[4-(3-Bromo-phenyl)-2-oxo-1,2-dihydro-indol-3-ylidenemethyl]-2,4-dimethyl-1H-pyrrole-3-carboxylic Acid (2-Diethylamino-ethyl)-amide]
3.76 µM | > 20 µM | Cc1[nH]c(/C=C2\C(=O)Nc3cccc(-c4ccccc4F)c32)c(C)c1C(=O)N1CCN(C)CC1 [Example 93, 3-[3,5-Dimethyl-4-(4-methyl-piperazine-1-carbonyl)-1H-pyrrol-2-ylmethylene]-4-(2-fluoro-phenyl)-1,3-dihydro-indol-2-one]
> 20 µM | > 20 µM | Cc1cc(C(=O)NCCn2ccnn2)c(/C=C2\C(=O)Nc3cccc(-c4ccccc4F)c32)[nH]1 [Example 99, 2-[4-(2-Fluoro-phenyl)-2-oxo-1,2-dihydro-indol-3-ylidenemethyl]-5-methyl-1H-pyrrole-3-carboxylic Acid (2-[1,2,3]Triazol-1-yl-ethyl)-amide]
19 µM | 7.09 µM | Cc1[nH]c(/C=C2\C(=O)Nc3cccc(-c4cccc(C(F)(F)F)c4)c32)c(C)c1C(=O)N1CCN(C)CC1 [Example 104, 3-[3,5-Dimethyl-4-(4-methyl-piperazine-1-carbonyl)-H-pyrrol-2-ylmethylene]-4-(3-trifluoromethyl-phenyl)-1,3-dihydro-indol-2-one]
9.87 µM | 8.61 µM | Cc1cc(C(=O)NCCN2CCCC2)c(/C=C2\C(=O)Nc3cccc(-c4ccc(F)c(Cl)c4)c32)[nH]1 [Example 119, 2-[4-(3-Chloro-4-fluoro-phenyl)-2-oxo-1,2-dihydro-indol-3-ylidenemethyl]-5-methyl-1H-pyrrole-3-carboxylic Acid (2-Pyrrolidin-1-yl-ethyl)-amide]
> 20 µM | 4.31 µM | CCN(CC)CCNC(=O)c1c(C)[nH]c(/C=C2\C(=O)Nc3cccc(-c4ccc(OC(F)(F)F)cc4)c32)c1C [Example 140, 2,4-Dimethyl-5-[2-oxo-4-(4-trifluoromethoxy-phenyl)-1,2-dihydro-indol-3-ylidenemethyl]-1H-pyrrole-3-carboxylic Acid (2-Diethylamino-ethyl)-amide]
